Source: article PMC4256409, “Role of Phenylalanine and Valine^10 Residues in the Antimicrobial Activity and Cytotoxicity of Piscidin-1” (PLoS ONE, 2014)
Where no end group is shown, it is not given here.

Tests used:
[1] = test system: MDRAB CCARM 12037; format: cell-based, multidrug-resistant Acinetobacter baumanii; conditions: broth microdilution, 37°C, 16 h, three independent experiments in triplicate, SD 14.0%
[2] = test system: MDRAB CCARM 12035; format: cell-based, multidrug-resistant Acinetobacter baumanii; conditions: broth microdilution, 37°C, 16 h, three independent experiments in triplicate, SD 14.0%
Experimental: (§1) The antimicrobial activities of the peptides against selected organisms, including three Gram-positive, three Gram-negative, and five antibiotic-resistant bacteria, were determined using a broth microdilution assay. Briefly, single colonies of bacteria and fungi were inoculated into Luria-Bertani (LB) medium and cultured overnight at 37°C. An aliquot of the culture was transferred to 10 mL of fresh LB and incubated for an additional 3–5 h at 37°C until it reached the mid-logarithmic phase. Two-fold serial dilutions of the peptides in 1% peptone were prepared. The serial dilutions (100 µL) were added to 100 µL of cells (2×10^6 colony-forming units (CFU)/mL) in 96-well microtiter plates and incubated at 37°C for 16 h. […] MIC values were calculated as the average of triplicate measurements from three independent assays.

[3] = test system: S. epidermidis KCTC1917; format: cell-based, Staphylococcus epidermidis; conditions: KCTC1917, 16 h
Experimental: as §1

[4] = test system: Drug-resistant bacterial strains; conditions: average over the 18 drug-resistant bacterial strains of Table 3
In short: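 Broth microdilution: mid-log bacteria grown in LB, 2×10^6 CFU/mL, mixed 1:1 with two-fold peptide dilutions in 1% peptone, 16 h at 37°C. Strains include KCTC reference isolates and CCARM MRSA and multidrug-resistant E. coli, S. typhimurium, A. baumanii, P. aeruginosa; MIC averaged from triplicates over three independent assays.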

[5] = test system: S. aureus KCTC1916; format: cell-based, Staphylococcus aureus; conditions: KCTC1916, 16 h
[6] = test system: MDRPA CCARM 2095; format: cell-based, multidrug-resistant P. aeruginosa; conditions: broth microdilution, 37°C, 16 h, three independent experiments in triplicate, SD 14.0%
Experimental: as §1

[7] = test system: MDRPA CCARM 2163; format: cell-based, multidrug-resistant P. aeruginosa; conditions: broth microdilution, 37°C, 16 h, three independent experiments in triplicate, SD 14.0%
[8] = test system: S. typhimurium KCTC1926; format: cell-based, Salmonella typhimurium; conditions: KCTC1926, 16 h
Experimental: as §1

[9] = test system: MDRPA CCARM 2003; format: cell-based, multidrug-resistant P. aeruginosa; conditions: broth microdilution, 37°C, 16 h, three independent experiments in triplicate, SD 14.0%
Experimental: as §1

[10] = test system: MDRST CCARM 8003; format: cell-based, multidrug-resistant S. typhimurium; conditions: broth microdilution, 37°C, 16 h, three independent experiments in triplicate, SD 14.0%
Text: (§2) Escherichia coli KCTC 1682, E. coli KCTC 2593, E. coli KCTC 2571, Salmonella typhimurium KCTC 1926, Pseudomonas aeruginosa KCTC 1637, P. aeruginosa KCTC 2004, P. aeruginosa KCTC 2513, Bacillus subtilis KCTC 3068, B. subtilis KCTC 1021, B. subtilis KCTC 1022, Staphylococcus epidermidis KCTC 1917, Staphylococcus aureus KCTC 1621, S. aureus KCTC 1916, and S. aureus KCTC 3881 were purchased from the Korean Collection for Type Cultures, Korea Research Institute of Bioscience & Biotechnology (Taejon, Korea). Methicillin-resistant S. aureus (MRSA) (CCARM 3089, CCARM 3090, CCARM 3108, CCARM 3114, and CCARM 3126), multidrug-resistant E. coli (MDREC) (CCARM 1229 and CCARM 1238), multidrug-resistant S. typhimurium (MDRST) (CCARM 8003, CCARM 8007, and CCARM 8009), multidrug-resistant Acinetobacter baumanii (MDRAB) (CCARM 12005, CCARM 12035, CCARM 12036, CCARM 12037), and multidrug-resistant P. aeruginosa (MDRPA) (CCARM 2002, CCARM 2003, CCARM 2095, and CCARM 2163) were obtained from the Culture Collection of Antibiotic-Resistant Microbes (CCARM) at Seoul Women’s University in Korea. The antimicrobial activities of the peptides against selected organisms, including three Gram-positive, three Gram-negative, and five antibiotic-resistant bacteria, were determined using a broth microdilution assay. Briefly, single colonies of bacteria and fungi were inoculated into Luria-Bertani (LB) medium and cultured overnight at 37°C. An aliquot of the culture was transferred to 10 mL of fresh LB and incubated for an additional 3–5 h at 37°C until it reached the mid-logarithmic phase. Two-fold serial dilutions of the peptides in 1% peptone were prepared. The serial dilutions (100 µL) were added to 100 µL of cells (2×10^6 colony-forming units (CFU)/mL) in 96-well microtiter plates and incubated at 37°C for 16 h. […] MIC values were calculated as the average of triplicate measurements from three independent assays.

[11] = test system: B. subtilis KCTC1021; format: cell-based, Bacillus subtilis; conditions: KCTC1021, 16 h
Experimental: as §1

[12] = test system: E. coli KCTC1682; format: cell-based, Escherichia coli; conditions: KCTC1682, 16 h
Experimental: as §1

[13] = test system: P. aeruginosa KCTC1637; format: cell-based, Pseudomonas aeruginosa; conditions: KCTC1637, 16 h
Experimental: as §1

[14] = test system: MDREC CCARM 1229; format: cell-based, multidrug-resistant E. coli; conditions: broth microdilution, 37°C, 16 h, three independent experiments in triplicate, SD 14.0%
Experimental: as §1

[15] = test system: S. aureus KCTC3881; format: cell-based, Staphylococcus aureus; conditions: KCTC3881, 16 h
[16] = test system: B. subtilis KCTC1022; format: cell-based, Bacillus subtilis; conditions: KCTC1022, 16 h
Experimental: as §1

[17] = test system: MRSA CCARM3089; format: cell-based, Methicillin-resistant S. aureus; conditions: CCARM3089, 16 h
[18] = test system: MDREC CCARM 1238; format: cell-based, multidrug-resistant E. coli; conditions: broth microdilution, 37°C, 16 h, three independent experiments in triplicate, SD 14.0%
[19] = test system: MRSA CCARM 3108; format: cell-based, Methicillin-resistant S. aureus; conditions: CCARM 3108, 16 h
Text: as §2

[20] = test system: MRSA CCARM 3126; format: cell-based, Methicillin-resistant S. aureus; conditions: CCARM 3126, 16 h
Text: as §2

[21] = test system: Standard bacterial strains; format: cell-based; conditions: average over the 14 standard bacterial strains of Table 2
[22] = test system: P. aeruginosa KCTC2004; format: cell-based, Pseudomonas aeruginosa; conditions: KCTC2004, 16 h
Experimental: as §1

[23] = test system: B. subtilis KCTC3068; format: cell-based, Bacillus subtilis; conditions: KCTC3068, 16 h
[24] = test system: MDRAB CCARM 12005; format: cell-based, multidrug-resistant Acinetobacter baumanii; conditions: broth microdilution, 37°C, 16 h, three independent experiments in triplicate, SD 14.0%
Experimental: as §1

[25] = test system: S. aureus KCTC1621; format: cell-based, Staphylococcus aureus; conditions: KCTC1621, 16 h
Experimental: as §1

[26] = test system: MDRPA CCARM 2002; format: cell-based, multidrug-resistant P. aeruginosa; conditions: broth microdilution, 37°C, 16 h, three independent experiments in triplicate, SD 14.0%
Experimental: as §1

[27] = test system: E. coli KCTC2593; format: cell-based, Escherichia coli; conditions: KCTC2593, 16 h
[28] = test system: MRSA CCARM 3090; format: cell-based, Methicillin-resistant S. aureus; conditions: CCARM 3090, 16 h
[29] = test system: P. aeruginosa KCTC2513; format: cell-based, Pseudomonas aeruginosa; conditions: KCTC2513, 16 h
Experimental: as §1

[30] = test system: MRSA CCARM 3114; format: cell-based, Methicillin-resistant S. aureus; conditions: CCARM 3114, 16 h
[31] = test system: E.coli KCTC2571; format: cell-based, Escherichia coli; conditions: KCTC2571, 16 h
Experimental: as §1

[32] = test system: MDRST CCARM 8007; format: cell-based, multidrug-resistant S. typhimurium; conditions: broth microdilution, 37°C, 16 h, three independent experiments in triplicate, SD 14.0%
[33] = test system: MDRAB CCARM 12036; format: cell-based, multidrug-resistant Acinetobacter baumanii; conditions: broth microdilution, 37°C, 16 h, three independent experiments in triplicate, SD 14.0%
Experimental: as §1

[34] = test system: MDRST CCARM 8009; format: cell-based, multidrug-resistant S. typhimurium; conditions: broth microdilution, 37°C, 16 h, three independent experiments in triplicate, SD 14.0%
Text: as §2

[35] = test system: NIH3T3 cells; experiment: Cytotoxicity, MTT assay; format: cell-based, mouse; conditions: 1 d
Experimental: The mouse embryonic fibroblast-derived cell line NIH3T3 was purchased from the American Type Culture Collection (Manassas, VA). Cells were cultured in Dulbecco’s modified Eagle medium (DMEM) supplemented with 10% fetal bovine serum (FBS) and antibiotic solution (100 units/mL penicillin and 100 µg/mL streptomycin) at 37°C in a humidified 5% CO2 atmosphere. Cultures were passaged every 2–3 days by brief trypsin treatment and visualized with an inverted microscope. The cytotoxicity of peptides against mammalian cells was determined using a 3-(4,5-dimethylthiazol-2-yl)-2,5-diphynyltetrazolium bromide (MTT) assay. Cells were seeded on 96-well microplates at a density of 1×10^4 cells/well in 100 µL of DMEM containing 10% FBS and 1% antibiotics, and […]. Plates were incubated for 24 h at 37°C in 5% CO2. Serial 2-fold dilutions of peptide solutions (100 µL) in DMEM were added; wells containing cells without peptides served as controls. After incubating plates for 1 d, 20 µL of MTT solution (5 mg/mL) was added to each well, and the plates were incubated for an additional 4 h at 37°C. Precipitated MTT formazan was dissolved by adding 100 µL of dimethyl sulfoxide. Absorbance at 570 nm was measured using an enzyme-linked immunosorbent assay (ELISA) reader (Molecular Devices; Sunnyvale, CA). Cell survival, expressed as a percentage, was calculated as the ratio of A570 for cells treated with peptide to that of cells without peptide treatment.

[36] = test system: human red blood cells (hRBCs); experiment: Hemolysis; format: cell-based
Experimental: The hemolytic ability of the peptides was tested using hRBCs. FreshhRBCs were washed three times with phosphate-buffered saline (PBS) (35 mM phosphate buffer containing 150 mM NaCl, pH 7.4), centrifuged for 10 min at 1000×g, and resuspended in PBS. The peptide solutions were then added to 50 µL of hRBCs in PBS to yield a final volume of 100 µL and a final erythrocyte concentration of 4% (v/v). The resulting suspension was incubated with agitation for 1 h at 37°C. The samples were centrifuged at 1000×g for 5 min. Hemoglobin release was monitored by measuring the absorbance of the supernatant at 405 nm. Controls for zero hemolysis (blank) and 100% hemolysis consisted of hRBCs suspended in PBS and 0.1% Triton-X 100, respectively. The percentage of hemolysis was calculated using the following equation: [drawing 1]

Row | Sequence | MIC [1] [µM] | MIC [2] [µM] | MIC [3] [µM] | Average MIC [4] [µM] | MIC [5] [µM] | MIC [6] [µM] | MIC [7] [µM] | MIC [8] [µM] | MIC [9] [µM] | MIC [10] [µM] | MIC [11] [µM] | MIC [12] [µM] | MIC [13] [µM] | MIC [14] [µM] | MIC [15] [µM] | MIC [16] [µM] | MIC [17] [µM] | MIC [18] [µM] | MIC [19] [µM] | MIC [20] [µM] | also measured
1 | AFHHIFRGIVHVGKTIHRLVTG [Pis-F1A] | 2.0 | 2.0 | 2.0 | 5.3 | 1.0 | 2.0 | 2.0 | 8.0 | 2.0 | 8.0 | 4.0 | 2.0 | 4.0 | 8.0 | 2.0 | 1.0 | 8.0 | 8.0 | 8.0 | 8.0 | Average MIC [21]: 3.2 µM; MIC [22]: 4.0 µM; MIC [23]: 4.0 µM; MIC [24]: 2.0 µM; MIC [25]: 1.0 µM; MIC [26]: 2.0 µM; MIC [27]: 2.0 µM; MIC [28]: 8.0 µM; MIC [29]: 8.0 µM; MIC [30]: 8.0 µM; MIC [31]: 2.0 µM; MIC [32]: 8.0 µM; MIC [33]: 2.0 µM; MIC [34]: 8.0 µM
2 | FFHHIFRGIKHVGKTIHRLVTG [Pis-V10K] | 2.0 | 2.0 | 1.0 | 3.8 | 2.0 | 2.0 | 2.0 | 1.0 | 2.0 | 8.0 | 4.0 | 1.0 | 1.0 | 4.0 | 1.0 | 2.0 | 8.0 | 4.0 | 4.0 | 4.0 | Average MIC [21]: 1.6 µM; MIC [22]: 2.0 µM; MIC [23]: 1.0 µM; MIC [24]: 2.0 µM; MIC [25]: 1.0 µM; MIC [26]: 2.0 µM; MIC [27]: 2.0 µM; MIC [28]: 8.0 µM; MIC [29]: 2.0 µM; MIC [30]: 4.0 µM; MIC [31]: 2.0 µM; MIC [32]: 4.0 µM; MIC [33]: 2.0 µM; MIC [34]: 4.0 µM
3 | FFHHIFRGIVHVGKTIHRLVTG [Pis-1, reference compound] | – | – | – | – | – | – | – | – | – | – | – | – | – | – | – | – | – | – | – | – | Survival rate of NIH3T3 cells ([35]; 6.25 µM peptide): 64%; Survival rate of NIH3T3 cells ([35]; 12.5 µM peptide): 49%; Survival rate of NIH3T3 cells ([35]; 25 µM peptide): 37%; Survival rate of NIH3T3 cells ([35]; 50 µM peptide): 11%; MHC (minimal peptide concentration that produced hemolysis) ([36]; pH 7.4): 1.6 µM; Hemolysis ([36]; peptide at its MIC, hRBCs): produced hemolysis even at its MIC
